# Reference: patent US20050250801A1, “Method of treating cancer with azaspirane compositions” (priority 2003, published 2005)
# Read-outs that look alike come from different tables or passages of the source.
# Columns and labels:
# [1] = tested on: T84 cells; assay: Induction of apoptosis, DNA fragmentation analysis, T84; format: cell-based, human; settings: 12 hours treatment
# Procedure: T84, CaCo-2 and HUVEC cells, respectively, were grown in 100 mm dishes for 7-9 days, culture media for HUVEC was EGM-2 (Clonetics, BioWhitaker Co.), until they reached semi-confluency. Cell monolayers were then treated for 12 hours (CaCo-2 and T84) and 16 hours (HUVEC), respectively, at the indicated concentrations of N,N,-diethyl-8,8-dipropyl-2-azaspiro[4,5]decane-2-propanamine dimaleate (Compound 1) in culture media. Cells were collected by trypsinization and the apoptotic DNA was isolated from these cells following the instructions of the DNA fragmentation analysis kit (Boehringer Mannheim Corp., Indianapolis, Ind.). The apoptotic DNA was evaluated using 1.5% agarose gel electrophoresis followed by staining with ethidium bromide. M denotes the lane containing molecular weight markers of DNA.
# [2] = tested on: SW-620; assay: NCI in vitro SRB assay, Colon Cancer; format: cell-based; settings: for CC50 / GI50: Homo sapiens
# Procedure: (§1) An in vitro assay which tested the ability of N,N,-diethyl-8,8-dipropyl-2-azaspiro[4,5]decane-2-propanamine dimaleate (Compound 1) to inhibit the growth of known cancer cell lines was performed by the National Cancer Institute in accordance with standard procedures. See: Lin, Z. X., Hoult, J. R., and Raman, A. Sulphorhodamine B assay for measuring proliferation of a pigmented melanocyte cell line and its application to the evaluation of crude drugs used in the treatment of vitiligo. J Ethnopharmacol. 66: 141-150, 1999. Briefly, selected tumor cell lines were cultured in media containing five different concentrations of Compound 1. After 48 hours of continuous exposure, a sulforhodamine B (SRB) assay was used to estimate cell viability or growth via optical measurements.
# (§2) From the measurements, the following values were determined: 1) the concentration of Compound 1 at which a tumor cell growth inhibition of 50% (relative to control) occurs (GI50), 2) the concentration of Compound 1 at which no growth occurs (total growth inhibition, TGI), and 3) the concentration of Compound 1 at which the […] (LC 50). […] FIG. 6 illustrates, graphically, tumor cell growth as a function of Compound 1 concentration of the scanned tumor cell lines.
# [3] = tested on: HCC-2998; assay: NCI in vitro SRB assay, Colon Cancer; format: cell-based; settings: for CC50 / GI50: Homo sapiens
# Procedure: as §1, §2
# [4] = tested on: KM12; assay: NCI in vitro SRB assay, Colon Cancer; format: cell-based; settings: for CC50 / GI50: Homo sapiens
# Procedure: as §1, §2
# [5] = tested on: HCT-15; assay: NCI in vitro SRB assay, Colon Cancer; format: cell-based; settings: for CC50 / GI50: Homo sapiens
# Procedure: as §1, §2
# [6] = tested on: HCT-116; assay: NCI in vitro SRB assay, Colon Cancer; format: cell-based; settings: for CC50 / GI50: Homo sapiens
# Procedure: as §1, §2
# [7] = tested on: DU-145; assay: NCI in vitro SRB assay, Prostate Cancer; format: cell-based; settings: for GI50: Homo sapiens
# Procedure: as §1, §2
# [8] = tested on: PC-3; assay: NCI in vitro SRB assay, Prostate Cancer; format: cell-based; settings: for CC50 / GI50: Homo sapiens
# Procedure: as §1, §2
# [9] = SW-620, Log10 conc -4.0 Moles/L
# [10] = SW-620, Log10 conc -5.0 Moles/L
# [11] = SW-620, Log10 conc -6.0 Moles/L
# [12] = SW-620, Log10 conc -7.0 Moles/L
# [13] = SW-620, Log10 conc -8.0 Moles/L
# [14] = HCC-2998, Log10 conc -4.0 Moles/L
# [15] = HCC-2998, Log10 conc -5.0 Moles/L
# [16] = HCC-2998, Log10 conc -6.0 Moles/L
# [17] = HCC-2998, Log10 conc -7.0 Moles/L
# [18] = HCC-2998, Log10 conc -8.0 Moles/L
# [19] = HCT-15, Log10 conc -4.0 Moles/L
# [20] = HCT-15, Log10 conc -5.0 Moles/L
# [21] = HCT-15, Log10 conc -6.0 Moles/L
# [22] = HCT-15, Log10 conc -7.0 Moles/L
# [23] = HCT-15, Log10 conc -8.0 Moles/L
# [24] = HCT-116, Log10 conc -4.0 Moles/L
# [25] = HCT-116, Log10 conc -5.0 Moles/L
# [26] = HCT-116, Log10 conc -6.0 Moles/L
# [27] = HCT-116, Log10 conc -7.0 Moles/L
# [28] = HCT-116, Log10 conc -8.0 Moles/L
smiles,measurement,setting,value
"CCCC1(CCC)CCC2(CCN(CCCN(CC)CC)C2)CC1.O=C(O)/C=C\C(=O)O.O=C(O)/C=C\C(=O)O [Compound 1, N,N,-diethyl-8,8-dipropyl-2-azaspiro[4,5]decane-2-propanamine dimaleate]",DNA ladder formation (apoptosis),[1],formation of DNA laddering in a dose-dependent manner
same,CC50,"[2]; SW-620, read-out: LC50",5170 nM
same,CC50,"[2]; SW-620, read-out: Log10 LC50 (converted)",5130 nM
same,GI50,"[2]; SW-620, read-out: GI50",1380 nM
same,GI50,"[2]; SW-620, read-out: Log10 GI50 (converted)",1380 nM
same,Log10 TGI,[2]; SW-620,−5.57
same,TGI,[2]; SW-620,2670 nM
same,Mean Optical Densities,[2]; [9],−0.016
same,Percent Growth,[2]; [9],−100%
same,Mean Optical Densities,[2]; [10],−0.002
same,Percent Growth,[2]; [10],−100%
same,Mean Optical Densities,[2]; [11],0.789
same,Percent Growth,[2]; [11],75%
same,Mean Optical Densities,[2]; [12],0.948
same,Percent Growth,[2]; [12],95%
same,Mean Optical Densities,[2]; [13],0.948
same,Percent Growth,[2]; [13],95%
same,Log10 TGI,[3]; HCC-2998,−6.62
same,TGI,[3]; HCC-2998,239 nM
same,Mean Optical Densities,[3]; [14],0.036
same,Percent Growth,[3]; [14],−84%
same,Mean Optical Densities,[3]; [15],0.019
same,Percent Growth,[3]; [15],−92%
same,Mean Optical Densities,[3]; [16],0.057
same,Percent Growth,[3]; [16],−74%
same,Mean Optical Densities,[3]; [17],0.303
same,Percent Growth,[3]; [17],45%
same,Mean Optical Densities,[3]; [18],0.338
same,Percent Growth,[3]; [18],64%
same,CC50,"[3]; HCC 2998, read-out: LC50",628 nM
same,CC50,"[3]; HCC 2998, read-out: Log10 LC50 (converted)",631 nM
same,GI50,"[3]; HCC-2998, read-out: GI50",54.9 nM
same,GI50,"[3]; HCC-2998, read-out: Log10 GI50 (converted)",55 nM
same,CC50,"[4]; KM12, read-out: LC50",7130 nM
same,CC50,"[4]; KM12, read-out: Log10 LC50 (converted)",7080 nM
same,GI50,"[4]; KM12, read-out: GI50",1510 nM
same,GI50,"[4]; KM12, read-out: Log10 GI50 (converted)",1510 nM
same,Log10 TGI,[4]; KM12,−5.48
same,TGI,[4]; KM12,3290 nM
same,Mean Optical Densities,"[4]; KM12, Log10 conc -4.0 Moles/L",0.210
same,Percent Growth,"[4]; KM12, Log10 conc -4.0 Moles/L",−52%
same,Mean Optical Densities,"[4]; KM12, Log10 conc -5.0 Moles/L",0.123
same,Percent Growth,"[4]; KM12, Log10 conc -5.0 Moles/L",−72%
same,Mean Optical Densities,"[4]; KM12, Log10 conc -6.0 Moles/L",1.243
same,Percent Growth,"[4]; KM12, Log10 conc -6.0 Moles/L",77%
same,Mean Optical Densities,"[4]; KM12, Log10 conc -7.0 Moles/L",1.402
same,Percent Growth,"[4]; KM12, Log10 conc -7.0 Moles/L",92%
same,Mean Optical Densities,"[4]; KM12, Log10 conc -8.0 Moles/L",1.429
same,Percent Growth,"[4]; KM12, Log10 conc -8.0 Moles/L",94%
same,Log10 TGI,[5]; HCT-15,−5.87
same,TGI,[5]; HCT-15,1340 nM
same,Mean Optical Densities,[5]; [19],−0.026
same,Percent Growth,[5]; [19],−100%
same,Mean Optical Densities,[5]; [20],−0.027
same,Percent Growth,[5]; [20],−100%
same,Mean Optical Densities,[5]; [21],0.371
same,Percent Growth,[5]; [21],14%
same,Mean Optical Densities,[5]; [22],0.819
same,Percent Growth,[5]; [22],75%
same,Mean Optical Densities,[5]; [23],0.878
same,Percent Growth,[5]; [23],83%
same,CC50,"[5]; HCT-15, read-out: LC50",3650 nM
same,CC50,"[5]; HCT-15, read-out: Log10 LC50 (converted)",3630 nM
same,GI50,"[5]; HCT-15, read-out: GI50",261 nM
same,GI50,"[5]; HCT-15, read-out: Log10 GI50 (converted)",263 nM
same,Log10 TGI,[6]; HCT-116,−5.63
same,TGI,[6]; HCT-116,2370 nM
same,Mean Optical Densities,[6]; [24],0.061
same,Percent Growth,[6]; [24],−63%
same,Mean Optical Densities,[6]; [25],0.051
same,Percent Growth,[6]; [25],−69%
same,Mean Optical Densities,[6]; [26],0.407
same,Percent Growth,[6]; [26],41%
same,Mean Optical Densities,[6]; [27],0.675
same,Percent Growth,[6]; [27],87%
same,Mean Optical Densities,[6]; [28],0.744
same,Percent Growth,[6]; [28],99%
same,CC50,"[6]; HCT-116, read-out: LC50",6730 nM
same,CC50,"[6]; HCT-116, read-out: Log10 LC50 (converted)",6760 nM
same,GI50,"[6]; HCT-116, read-out: GI50",646 nM
same,GI50,"[6]; HCT-116, read-out: Log10 GI50 (converted)",646 nM
same,Log10 TGI,[7],−5.51
same,TGI,[7],3090 nM
same,GI50,[7]; read-out: GI50,1700 nM
same,GI50,[7]; read-out: Log10 GI50 (converted),1700 nM
same,Mean Optical Densities,[7]; Log10 conc -4.0 Moles/L,−0.032
same,Percent Growth,[7]; Log10 conc -4.0 Moles/L,−100%
same,Mean Optical Densities,[7]; Log10 conc -5.0 Moles/L,0.005
same,Percent Growth,[7]; Log10 conc -5.0 Moles/L,−98%
same,Mean Optical Densities,[7]; Log10 conc -6.0 Moles/L,0.733
same,Percent Growth,[7]; Log10 conc -6.0 Moles/L,94%
same,Mean Optical Densities,[7]; Log10 conc -7.0 Moles/L,0.766
same,Percent Growth,[7]; Log10 conc -7.0 Moles/L,101%
same,Mean Optical Densities,[7]; Log10 conc -8.0 Moles/L,0.728
same,Percent Growth,[7]; Log10 conc -8.0 Moles/L,93%
same,CC50,"[8]; PC-3, read-out: LC50",6680 nM
same,CC50,"[8]; PC-3, read-out: Log10 LC50 (converted)",6610 nM
same,GI50,"[8]; PC-3, read-out: GI50",1710 nM
same,GI50,"[8]; PC-3, read-out: Log10 GI50 (converted)",1700 nM
same,Log10 TGI,[8]; PC-3,−5.47
same,TGI,[8]; PC-3,3380 nM
same,Mean Optical Densities,"[8]; PC-3, Log10 conc -4.0 Moles/L",0.037
same,Percent Growth,"[8]; PC-3, Log10 conc -4.0 Moles/L",−90%
same,Mean Optical Densities,"[8]; PC-3, Log10 conc -5.0 Moles/L",0.073
same,Percent Growth,"[8]; PC-3, Log10 conc -5.0 Moles/L",−80%
same,Mean Optical Densities,"[8]; PC-3, Log10 conc -6.0 Moles/L",1.953
same,Percent Growth,"[8]; PC-3, Log10 conc -6.0 Moles/L",89%
same,Mean Optical Densities,"[8]; PC-3, Log10 conc -7.0 Moles/L",2.067
same,Percent Growth,"[8]; PC-3, Log10 conc -7.0 Moles/L",96%
same,Mean Optical Densities,"[8]; PC-3, Log10 conc -8.0 Moles/L",2.116
same,Percent Growth,"[8]; PC-3, Log10 conc -8.0 Moles/L",99%
